Data reported in patent US20080146540A1, “Methods of diagnosis and treatment for asthma, allergic rhinitis and other respiratory diseases based on haplotype association” (priority 2003, published 2008).

Test system: asthma patients
Experiment: Phase II clinical study CEP-1347-201: peak expiratory flow rate (PEFR; ANCOVA at week 8 and longitudinal model of daily PEFR)
Format: in vivo, human
Settings: for PEFR Change from Baseline at Week 8, LS Mean: ANCOVA; for Mean model predicted PEFR adjusted for baseline percent predicted PEFR, mean: morning PEFR
Description: Two analyses of PEFR were pre-specified in the SAP, an ANCOVA analysis of the change from baseline at week 8 and a model based longitudinal analysis of the daily PEFR measurements. Results from an ANCOVA (analysis of covariance) including treatment group as a factor and the baseline value as a covariate are presented in Table 19. The ANCOVA results reported in Table 19 were limited to change from baseline at week 8 PEFR measurements from office based spirometry assessments. Patients were also instructed to perform peak flow rate assessments at home, once in the morning and once in the evening using a hand-held peak flow device. PEFR measures were then recorded by the patient into a diary. A total of 6878 morning (5 am-12 noon) observations were collected from 149 patients during the treatment phase of the study (56 days in duration) corresponding to approximately 46.2 observations per subject. […] The endpoint used in this analysis was change from baseline in morning PEFR. While the model based analysis can be difficult to understand, this approach takes advantage of the rich daily PEFR data set (6878 observations) whereas the ANCOVA was limited to the week 8 PEFR (146 observations). The model included a placebo and treatment component. […] This common phenomenon is typically referred to as “regression to the mean”. In addition, the onset of this placebo effect appeared to occur over time. Therefore, a rate constant was added to the model to account for the change in placebo effect over time. […] Placeboss=θ(1)+η(1)+θ(9)*baseline % predicted PEFR (Eq. 3) Placebot=Placeboss*(1-exp(-θ(5)*DAY)) (Eq. 4) […] To allow for a less than immediate CEP-1347 effect, a rate constant controlling the onset of treatment effect was also included in the treatment model. In addition, it was assumed that the ability of a patient to responds to drug treatment was proportional to the patients baseline % predicted PEFR. In other words, patients with normal lung function at baseline would be expected to have little effect whereas those with poor lung function at baseline would be expected to have a larger effect. This model component is similar to a treatment by baseline interaction in an ANCOVA analysis. Equation describes the treatment time course model: […]=θ(n)*ROOM*(1-(-exp(-θ(10)*DAY)) (Eq. 5) Where, […] the treatment effect at time t adjusted for the patient's baseline % predicted PEFR and duration of drug therapy, θ(n) is the fixed effect associated with n treatment group; either 10, 25, or 50 mgBID treatment groups, ROOM scales the magnitude of the treatment effect based on the baseline % predicted PEFR (i.e., 1-baseline predicted; baseline by treatment interaction), θ(10) is the rate constant governing the onset of treatment effect. The overall effect at time t combines the placebo component and the drug component (Equation 6): […]=Placebot+Treatment1+ε(1) (Eq. 6) […] Model selection was done in the same manner as described for the MCT analysis. In addition, a randomization test was undertaken to more accurately determine the p value comparing the full model (run #14 included a treatment component) to the reduced model (run #5; placebo model only). […] The 5th and 95th percentiles for the predicted values were identified from the pool of predicted values to establish a 90% prediction interval around the mean model prediction (Table 21).

Compound: CCSCc1ccc2c(c1)c1c3c(c4c5cc(CSCC)ccc5n5c4c1n2C1CC(O)(C(=O)OC)C5(C)O1)CNC3=O (stereo not shown) [CEP-1347]
- PEFR Change from Baseline at Week 8, LS Mean (10 mg BID, p 0.30): 0.01
- PEFR Change from Baseline at Week 8, LS Mean (25 mg BID, p 1.0): 0.03
- PEFR Change from Baseline at Week 8, LS Mean (50 mg BID, p 0.77): 0.04
- daily morning PEFR change from baseline, longitudinal mixed effects model with CEP-1347 treatment component vs placebo only model (10, 25, 50 mg BID, 56 days, p=0.012): statistically significant improvement in the description of the data
- Mean model predicted PEFR adjusted for baseline percent predicted PEFR, mean (Dose 20, BL % pred PEF 70): 19.3
- Mean model predicted PEFR adjusted for baseline percent predicted PEFR, mean (Dose 20, BL % pred PEF 80): 16.6
- Mean model predicted PEFR adjusted for baseline percent predicted PEFR, mean (Dose 20, BL % pred PEF 96): 12.2
- Mean model predicted PEFR adjusted for baseline percent predicted PEFR, mean (Dose 50, BL % pred PEF 70): 38.6
- Mean model predicted PEFR adjusted for baseline percent predicted PEFR, mean (Dose 50, BL % pred PEF 80): 29.4
- Mean model predicted PEFR adjusted for baseline percent predicted PEFR, mean (Dose 50, BL % pred PEF 96): 14.8
- Mean model predicted PEFR adjusted for baseline percent predicted PEFR, mean (Dose 100, BL % pred PEF 70): 99.5
- Mean model predicted PEFR adjusted for baseline percent predicted PEFR, mean (Dose 100, BL % pred PEF 80): 70.0
- Mean model predicted PEFR adjusted for baseline percent predicted PEFR, mean (Dose 100, BL % pred PEF 96): 22.9
